How the values were obtained:
Parameters in all cases: scale not given here
[1] = test system: IPOHE Morningglory, Ivyleaf; assay: Preemergence herbicidal evaluation, IPOHE; type: in vivo, Ipomoea hederacea, (L.) Jacq.; settings: preemergence
Summary of the method: (§1)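 Seeds mixed with potting soil in cups, then sprayed preemergence with aqueous acetone test solution at about 0.013 to 0.800 kg per hectare equivalent. Cups kept under standard greenhouse care; plants rated on a visual scale four to five weeks after treatment.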

ORYSAT Rice, Tebonnet [2] = assay: Preemergence herbicidal evaluation, ORYSAT; type: in vivo, Oryza sativa, (L.); settings: preemergence
Summary of the method: as §1

[3] = test system: IPOHE Morningglory, Ivyleaf; assay: Postemergence herbicidal evaluation, IPOHE; type: in vivo, Ipomoea hederacea, (L.) Jacq.; settings: postemergence spray, rated about two-three weeks after treatment
Summary of the method: (§2)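 Two-week-old seedlings sprayed postemergence with compound in 80/20 acetone/water plus 1.0% methylated seed oil, at about 0.006–0.400 kg/ha, through a nozzle at 40 psi. Plants kept under greenhouse conditions and visually rated about two–three weeks after treatment; ratings from repeat tests averaged.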

ZEAMX Corn, Field [4] = assay: Preemergence herbicidal evaluation, ZEAMX; type: in vivo, Zea mays, L. (Sammel-Bezeichnung); settings: preemergence
Summary of the method: as §1

ABUTH Velvetleaf [5] = assay: Postemergence herbicidal evaluation, ABUTH; type: in vivo, Abutilon theophrasti, Medic.; settings: postemergence spray, rated about two-three weeks after treatment
Summary of the method: as §2

[6] = test system: TRZAWR Wheat, Winter, cv Riband; assay: Preemergence herbicidal evaluation, TRZAWR; type: in vivo, Triticum aestivum; settings: preemergence
Summary of the method: as §1

ECHOG Barnyardgrass [7] = assay: Preemergence herbicidal evaluation, ECHOG; type: in vivo, Echinochloa crus-galli, (L.) Beau; settings: preemergence
Summary of the method: as §1

SETVI Foxtail, Green [8] = assay: Postemergence herbicidal evaluation, SETVI; type: in vivo, Setaria viridis, (L.) Beau; settings: postemergence spray, rated about two-three weeks after treatment
Summary of the method: as §2

GLXMAW Soybean, Williams [9] = assay: Preemergence herbicidal evaluation, GLXMAW; type: in vivo, Glycine max, (L.) Merr. cv Williams; settings: preemergence
Summary of the method: as §1

ECHOG Barnyardgrass [10] = assay: Postemergence herbicidal evaluation, ECHOG; type: in vivo, Echinochloa crus-galli, (L.) Beau; settings: postemergence spray, rated about two-three weeks after treatment
Summary of the method: as §2

AMBEL Ragweed, Common [11] = assay: Preemergence herbicidal evaluation, AMBEL; type: in vivo, Ambrosia artemisifolia, L.; settings: preemergence
Summary of the method: as §1

SETVI Foxtail, Green [12] = assay: Preemergence herbicidal evaluation, SETVI; type: in vivo, Setaria viridis, (L.) Beau; settings: preemergence
Summary of the method: as §1

GALAP Galium [13] = assay: Preemergence herbicidal evaluation, GALAP; type: in vivo, Galium aparine; settings: preemergence
Summary of the method: as §1

GLXMAW Soybean, Williams [14] = assay: Postemergence herbicidal evaluation, GLXMAW; type: in vivo, Glycine max, (L.) Merr. cv Williams; settings: postemergence spray, rated about two-three weeks after treatment
Summary of the method: as §2

ABUTH Velvetleaf [15] = assay: Preemergence herbicidal evaluation, ABUTH; type: in vivo, Abutilon theophrasti, Medic.; settings: preemergence
Summary of the method: as §1

AMBEL Ragweed, Common [16] = assay: Postemergence herbicidal evaluation, AMBEL; type: in vivo, Ambrosia artemisifolia, L.; settings: postemergence spray, rated about two-three weeks after treatment
Summary of the method: as §2

[17] = test system: CHEAL Lambsquarters, Common; assay: Preemergence herbicidal evaluation, CHEAL; type: in vivo, Chenopodium album, L.; settings: preemergence
Summary of the method: as §1

ORYSAT Rice, Tebonnet [18] = assay: Postemergence herbicidal evaluation, ORYSAT; type: in vivo, Oryza sativa, (L.); settings: postemergence spray, rated about two-three weeks after treatment
Summary of the method: as §2

[19] = test system: CHEAL Lambsquarters, Common; assay: Postemergence herbicidal evaluation, CHEAL; type: in vivo, Chenopodium album, L.; settings: postemergence spray, rated about two-three weeks after treatment
Summary of the method: as §2

CASOB Sicklepod [20] = assay: Preemergence herbicidal evaluation, CASOB; type: in vivo, Cassia obtusifolia, L.; settings: preemergence
Summary of the method: as §1

CASOB Sicklepod [21] = assay: Postemergence herbicidal evaluation, CASOB; type: in vivo, Cassia obtusifolia, L.; settings: postemergence spray, rated about two-three weeks after treatment
Summary of the method: as §2

[22] = test system: TRZAWR Wheat, Winter, cv Riband; assay: Postemergence herbicidal evaluation, TRZAWR; type: in vivo, Triticum aestivum; settings: postemergence spray, rated about two-three weeks after treatment
Summary of the method: as §2

GALAP Galium [23] = assay: Postemergence herbicidal evaluation, GALAP; type: in vivo, Galium aparine; settings: postemergence spray, rated about two-three weeks after treatment
Summary of the method: as §2

ZEAMX Corn, Field [24] = assay: Postemergence herbicidal evaluation, ZEAMX; type: in vivo, Zea mays, L. (Sammel-Bezeichnung); settings: postemergence spray, rated about two-three weeks after treatment
Summary of the method: as §2

## Cc1ccc(OCC(=O)O)cc1-n1nnc2cc(F)c(-n3c(=O)cc(C(F)(F)F)n(C)c3=O)cc21 [Example 37]
[1]; rate 0.016 kg/ha
  IPOHE herbicidal rating: 0.0
[1]; rate 0.032 kg/ha
  IPOHE herbicidal rating: 0.0
[1]; rate 0.062 kg/ha
  IPOHE herbicidal rating: 0.0
[1]; rate 0.125 kg/ha
  IPOHE herbicidal rating: 5.0
ORYSAT Rice, Tebonnet [2]; rate 0.016 kg/ha
  ORYSAT herbicidal rating: 0.0
ORYSAT Rice, Tebonnet [2]; rate 0.032 kg/ha
  ORYSAT herbicidal rating: 0.0
ORYSAT Rice, Tebonnet [2]; rate 0.062 kg/ha
  ORYSAT herbicidal rating: 0.0
ORYSAT Rice, Tebonnet [2]; rate 0.125 kg/ha
  ORYSAT herbicidal rating: 0.0
[3]; 0.008 kg/ha
  Postemergence herbicidal rating IPOHE: 3.0
[3]; 0.016 kg/ha
  Postemergence herbicidal rating IPOHE: 9.0
[3]; 0.032 kg/ha
  Postemergence herbicidal rating IPOHE: 9.0
[3]; 0.062 kg/ha
  Postemergence herbicidal rating IPOHE: 9.0
ZEAMX Corn, Field [4]; rate 0.016 kg/ha
  ZEAMX herbicidal rating: 0.0
ZEAMX Corn, Field [4]; rate 0.032 kg/ha
  ZEAMX herbicidal rating: 0.0
ZEAMX Corn, Field [4]; rate 0.062 kg/ha
  ZEAMX herbicidal rating: 0.0
ZEAMX Corn, Field [4]; rate 0.125 kg/ha
  ZEAMX herbicidal rating: 0.0
ABUTH Velvetleaf [5]; 0.008 kg/ha
  Postemergence herbicidal rating ABUTH: 0.0
ABUTH Velvetleaf [5]; 0.016 kg/ha
  Postemergence herbicidal rating ABUTH: 3.0
ABUTH Velvetleaf [5]; 0.032 kg/ha
  Postemergence herbicidal rating ABUTH: 5.0
ABUTH Velvetleaf [5]; 0.062 kg/ha
  Postemergence herbicidal rating ABUTH: 9.0
[6]; rate 0.016 kg/ha
  TRZAWR herbicidal rating: 0.0
[6]; rate 0.032 kg/ha
  TRZAWR herbicidal rating: 0.0
[6]; rate 0.062 kg/ha
  TRZAWR herbicidal rating: 0.0
[6]; rate 0.125 kg/ha
  TRZAWR herbicidal rating: 0.0
ECHOG Barnyardgrass [7]; rate 0.016 kg/ha
  ECHCG herbicidal rating: 0.0
ECHOG Barnyardgrass [7]; rate 0.032 kg/ha
  ECHCG herbicidal rating: 0.0
ECHOG Barnyardgrass [7]; rate 0.062 kg/ha
  ECHCG herbicidal rating: 0.0
ECHOG Barnyardgrass [7]; rate 0.125 kg/ha
  ECHCG herbicidal rating: 0.0
SETVI Foxtail, Green [8]; 0.008 kg/ha
  Postemergence herbicidal rating SETVI: 0.0
SETVI Foxtail, Green [8]; 0.016 kg/ha
  Postemergence herbicidal rating SETVI: 0.0
SETVI Foxtail, Green [8]; 0.032 kg/ha
  Postemergence herbicidal rating SETVI: 7.0
SETVI Foxtail, Green [8]; 0.062 kg/ha
  Postemergence herbicidal rating SETVI: 9.0
GLXMAW Soybean, Williams [9]; rate 0.016 kg/ha
  GLXMAW herbicidal rating: 0.0
GLXMAW Soybean, Williams [9]; rate 0.032 kg/ha
  GLXMAW herbicidal rating: 0.0
GLXMAW Soybean, Williams [9]; rate 0.062 kg/ha
  GLXMAW herbicidal rating: 0.0
GLXMAW Soybean, Williams [9]; rate 0.125 kg/ha
  GLXMAW herbicidal rating: 0.0
ECHOG Barnyardgrass [10]; 0.008 kg/ha
  Postemergence herbicidal rating ECHCG: 0.0
ECHOG Barnyardgrass [10]; 0.016 kg/ha
  Postemergence herbicidal rating ECHCG: 0.0
ECHOG Barnyardgrass [10]; 0.032 kg/ha
  Postemergence herbicidal rating ECHCG: 2.0
ECHOG Barnyardgrass [10]; 0.062 kg/ha
  Postemergence herbicidal rating ECHCG: 3.0
AMBEL Ragweed, Common [11]; rate 0.016 kg/ha
  AMBEL herbicidal rating: 0.0
AMBEL Ragweed, Common [11]; rate 0.032 kg/ha
  AMBEL herbicidal rating: 0.0
AMBEL Ragweed, Common [11]; rate 0.062 kg/ha
  AMBEL herbicidal rating: 0.0
AMBEL Ragweed, Common [11]; rate 0.125 kg/ha
  AMBEL herbicidal rating: 3.0
SETVI Foxtail, Green [12]; rate 0.016 kg/ha
  SETVI herbicidal rating: 0.0
SETVI Foxtail, Green [12]; rate 0.032 kg/ha
  SETVI herbicidal rating: 0.0
SETVI Foxtail, Green [12]; rate 0.062 kg/ha
  SETVI herbicidal rating: 0.0
SETVI Foxtail, Green [12]; rate 0.125 kg/ha
  SETVI herbicidal rating: 8.0
GALAP Galium [13]; rate 0.016 kg/ha
  GALAP herbicidal rating: 0.0
GALAP Galium [13]; rate 0.032 kg/ha
  GALAP herbicidal rating: 0.0
GALAP Galium [13]; rate 0.062 kg/ha
  GALAP herbicidal rating: 0.0
GALAP Galium [13]; rate 0.125 kg/ha
  GALAP herbicidal rating: 0.0
GLXMAW Soybean, Williams [14]; 0.008 kg/ha
  Postemergence herbicidal rating GLXMAW: 3.5
GLXMAW Soybean, Williams [14]; 0.016 kg/ha
  Postemergence herbicidal rating GLXMAW: 4.0
GLXMAW Soybean, Williams [14]; 0.032 kg/ha
  Postemergence herbicidal rating GLXMAW: 6.5
GLXMAW Soybean, Williams [14]; 0.062 kg/ha
  Postemergence herbicidal rating GLXMAW: 7.0
ABUTH Velvetleaf [15]; rate 0.016 kg/ha
  ABUTH herbicidal rating: 0.0
ABUTH Velvetleaf [15]; rate 0.032 kg/ha
  ABUTH herbicidal rating: 0.0
ABUTH Velvetleaf [15]; rate 0.062 kg/ha
  ABUTH herbicidal rating: 9.0
ABUTH Velvetleaf [15]; rate 0.125 kg/ha
  ABUTH herbicidal rating: 9.0
AMBEL Ragweed, Common [16]; 0.008 kg/ha
  Postemergence herbicidal rating AMBEL: 0.0
AMBEL Ragweed, Common [16]; 0.016 kg/ha
  Postemergence herbicidal rating AMBEL: 4.0
AMBEL Ragweed, Common [16]; 0.032 kg/ha
  Postemergence herbicidal rating AMBEL: 9.0
AMBEL Ragweed, Common [16]; 0.062 kg/ha
  Postemergence herbicidal rating AMBEL: 9.0
[17]; rate 0.062 kg/ha
  CHEAL herbicidal rating: 0.0
[17]; rate 0.125 kg/ha
  CHEAL herbicidal rating: 9.0
ORYSAT Rice, Tebonnet [18]; 0.008 kg/ha
  Postemergence herbicidal rating ORYSAT: 0.5
ORYSAT Rice, Tebonnet [18]; 0.016 kg/ha
  Postemergence herbicidal rating ORYSAT: 1.0
ORYSAT Rice, Tebonnet [18]; 0.032 kg/ha
  Postemergence herbicidal rating ORYSAT: 3.5
ORYSAT Rice, Tebonnet [18]; 0.062 kg/ha
  Postemergence herbicidal rating ORYSAT: 7.5
[19]; 0.008 kg/ha
  Postemergence herbicidal rating CHEAL: 0.0
[19]; 0.016 kg/ha
  Postemergence herbicidal rating CHEAL: 0.0
[19]; 0.032 kg/ha
  Postemergence herbicidal rating CHEAL: 4.0
[19]; 0.062 kg/ha
  Postemergence herbicidal rating CHEAL: 4.0
CASOB Sicklepod [20]; rate 0.016 kg/ha
  CASOB herbicidal rating: 0.0
CASOB Sicklepod [20]; rate 0.032 kg/ha
  CASOB herbicidal rating: 0.0
CASOB Sicklepod [20]; rate 0.062 kg/ha
  CASOB herbicidal rating: 0.0
CASOB Sicklepod [20]; rate 0.125 kg/ha
  CASOB herbicidal rating: 0.0
CASOB Sicklepod [21]; 0.008 kg/ha
  Postemergence herbicidal rating CASOB: 0.0
CASOB Sicklepod [21]; 0.016 kg/ha
  Postemergence herbicidal rating CASOB: 0.0
CASOB Sicklepod [21]; 0.032 kg/ha
  Postemergence herbicidal rating CASOB: 0.0
CASOB Sicklepod [21]; 0.062 kg/ha
  Postemergence herbicidal rating CASOB: 0.0
[22]; 0.008 kg/ha
  Postemergence herbicidal rating TRZAWR: 3.5
[22]; 0.016 kg/ha
  Postemergence herbicidal rating TRZAWR: 5.5
[22]; 0.032 kg/ha
  Postemergence herbicidal rating TRZAWR: 5.5
[22]; 0.062 kg/ha
  Postemergence herbicidal rating TRZAWR: 7.0
GALAP Galium [23]; 0.008 kg/ha
  Postemergence herbicidal rating GALAP: 0.0
GALAP Galium [23]; 0.016 kg/ha
  Postemergence herbicidal rating GALAP: 0.0
GALAP Galium [23]; 0.032 kg/ha
  Postemergence herbicidal rating GALAP: 0.0
GALAP Galium [23]; 0.062 kg/ha
  Postemergence herbicidal rating GALAP: 2.0
ZEAMX Corn, Field [24]; 0.008 kg/ha
  Postemergence herbicidal rating ZEAMX: 7.0
ZEAMX Corn, Field [24]; 0.016 kg/ha
  Postemergence herbicidal rating ZEAMX: 7.5
ZEAMX Corn, Field [24]; 0.032 kg/ha
  Postemergence herbicidal rating ZEAMX: 7.5
ZEAMX Corn, Field [24]; 0.062 kg/ha
  Postemergence herbicidal rating ZEAMX: 8.0

— patent US20020111274A1, “1-alkyl-3-[1-(substituted phenyl) benzotriazol-6-yl] uracils” (BASF Aktiengesellschaft, priority 2000, published 2002)
